Experiments:
[1] = Micellar cholesterol release: cholesterol remaining in bile acid micelles after incubation with test substance, filtration and GC; settings: for micellar cholesterol concentration: Embodiment 4, same method as Embodiment 1, FIG. 5
Experimental: Prepared were micelles composed of 0.5 mM of cholesterol, 6.6 mM of sodium taurocholate, 0.6 mM of phosphatidyl choline of egg yolk origin, 132 mM of sodium chloride (NaCl) and 15 mM of sodium phosphate (NaH2PO4.2H2O). The micelles were incubated for 24 hours at 37° C. for stabilizing the micelles. Then 0.1 mL solution of each theaflavin (manufactured by Nagara Science Co.) was added to each of 3 mL portions of the micelles in such a manner that their concentrations were to be respectively 0 μg, 200 μg and 800 μg to 1 mL of the micelles, which were then incubated at 37° C. for 1 hour. After that, each of solutions was filtered through a 220 nm filter (manufactured by Whatman Co.) to obtain a clear micelle solution. Cholesterol was extracted from each micelle solution obtained, and the concentration of cholesterol remained in the micelles was measured using a gas chromatograph (manufactured by Shimadzu Corp.) using 5α-cholestane as an internal standard.
(§1) Prepared were micelles composed of 0.5 mM of cholesterol (manufactured by Sigma Co.), 6.6 mM of sodium taurocholate (manufactured by Nacalai Tesque Inc.), 0.6 mM of phosphatidyl choline from egg yolk (manufactured by Sigma Co.), 132 mM of sodium chloride (NaCl, manufactured by Nacalai Tesque Inc.) and 15 mM of sodium phosphate (NaH2PO4.2H2O, manufactured by Nacalai Tesque Inc.). The micelles were incubated at 37° C. for 24 hours for stabilization. Then 0.1 mL solution of the theaflavins formulation (manufactured by Funakoshi Corp.) was added to each of 3 mL portions of the micelles in such a manner that their concentrations were respectively 0 μg, 200 μg and 800 μg to 1 mL micelles, and the solutions were incubated at 37° C. for 1 hour (n=3). Each solution was filtered through a 220 nm filter to obtain a clear solution. Cholesterol was extracted from each micelle solution, and cholesterol remained in the micelle was measured with a gas chromatograph (manufactured by Shimadzu Corp.) using 5α-cholestane as an internal standard.
Next, micelles for test were prepared (pH 6.8) at a composition of 0.5 mM of cholesterol, 6.6 mM of sodium taurocholate, 0.6 mM of egg yolk phosphatidyl choline, 132 mM of sodium chloride (NaCl) and sodium phosphate (NaH2PO4.2H2O), and the micelles were incubated at 37° C. for 24 hours for stabilization. […]

[2] = as above; settings: for concentration of cholesterol in the micelles / concentration of micellar cholesterol relative to the case using theaflavin or theaflavin digallate: Embodiment 1; for concentration of cholesterol in the micelles: amount of addition raised up to 0.5 mM, incubated 37° C. 1 hour, FIG. 1; for concentration of micellar cholesterol relative to the case using theaflavin or theaflavin digallate: at an amount of 0.5 mM addition
[3] = Concentration of bile acid in the micelle solution by the enzymatic method (Eaton et al.); settings: Embodiment 3; FIG. 4
Experimental: as §1
Moreover, the concentration of bile acid was measured by the enzymatic method in accordance with the process of Eaton et al (Eaton, D. L. et al., Proc. Soc. Exp. Biol. Med. 1976, January; 151(1): 198-202).

Structure (SMILES) | micellar cholesterol concentration [1] | concentration of cholesterol in the micelles [2] | concentration of micellar cholesterol relative to the case using theaflavin or theaflavin digallate [2] | also measured
O=C(O[C@@H]1Cc2c(O)cc(O)cc2O[C@@H]1c1cc(O)c(=O)c2c(O)c(O)cc([C@H]3Oc4cc(O)cc(O)c4C[C@H]3OC(=O)c3cc(O)c(O)c(O)c3)c2c1)c1cc(O)c(O)c(O)c1 [theaflavin-3,3′-digallate] | little effect | did not change | – | micelle formation inhibitory effect ([2]; Embodiment 2, amount of addition increased up to 2 mmol/L, FIG. 2): excellent micelle formation inhibitory effect; cholesterol decreasing effect ([2]; Embodiment 2, amount of addition up to 1 mmol/L, FIG. 2): relatively gentle
O=C(O[C@@H]1Cc2c(O)cc(O)cc2O[C@@H]1c1cc(=O)c(O)c2c(O)c(O)cc([C@H]3Oc4cc(O)cc(O)c4C[C@H]3O)c2c1)c1cc(O)c(O)c(O)c1 [theaflavin-3-monogallate] | – | decreased in a manner dependent on the amount of addition | decreased about twice | –
O=C(O[C@@H]1Cc2c(O)cc(O)cc2O[C@@H]1c1cc(O)c(O)c2c(=O)c(O)cc([C@H]3Oc4cc(O)cc(O)c4C[C@H]3O)cc12)c1cc(O)c(O)c(O)c1 [theaflavin-3′-monogallate] | – | decreased in a manner dependent on the amount of addition | decreased about twice | –
O=C(O[C@@H]1Cc2c(O)cc(O)cc2O[C@@H]1c1ccc(O)c(O)c1)c1cc(O)c(O)c(O)c1 [epicatechin gallate] | little effect | – | – | –
O=C(O[C@@H]1Cc2c(O)cc(O)cc2O[C@@H]1c1cc(O)c(O)c(O)c1)c1cc(O)c(O)c(O)c1 [epigallocatechin gallate] | decreased | – | – | effect on the concentration of bile acid [3]: did not show any effect; concentration of cholesterol in the micelles ([1]; Embodiment 3, 0, 200 and 800 μg to 1 mL micelles, 37° C. 1 hour, n=3, FIG. 3): decreased
O=c1c(O)cc([C@H]2Oc3cc(O)cc(O)c3C[C@H]2O)cc2c([C@H]3Oc4cc(O)cc(O)c4C[C@H]3O)cc(O)c(O)c12 [theaflavin] | – | did not change | – | –

Source: US20090156662A1, “Fat Absorption Inhibitor” (ITO EN, LTD., priority 2006, published 2009)
